Measured values as given in US20260207602A1, “EGFR INHIBITORS” (Blueprint Medicines Corporation, priority 2022, published 2026).

Assays:
[1] = target: T1, EGFR L858R (Homo sapiens, UniProt P00533, L858R); assay: Biochemical EGFR inhibition assay (Caliper mobility shift), EGFR L858R; conditions: biochemical Caliper mobility shift assay, EGFR L858R enzyme; read-out: Enz EGFR L858R IC50
T1 construct: purchased SignalChem E10-122BG
Procedure, shortened: (§1)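 Recombinant EGFR mutant phosphorylates 2.5 μM 5-FAM peptide at 1.0 mM ATP or ATP Km, in 100 mM HEPES pH 7.5, 10 mM MgCl2, 1 mM DTT, 1% DMSO, 25 °C to 10–20% conversion, EDTA stop. Caliper mobility shift separation; apparent IC50 from percent activity versus log concentration.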

[2] = target: T2, EGFR (d746-750) (Homo sapiens, UniProt P00533, DEL746-750); assay: Biochemical EGFR inhibition assay (Caliper mobility shift), EGFR (d746-750); conditions: biochemical Caliper mobility shift assay, EGFR Exon 19-del enzyme; read-out: Enz EGFR Exon 19-del IC50
T2 construct: purchased SignalChem E10-122JG
T2 sequence (P00533 with tags, fused parts or gaps DEL746-750 limits assumed): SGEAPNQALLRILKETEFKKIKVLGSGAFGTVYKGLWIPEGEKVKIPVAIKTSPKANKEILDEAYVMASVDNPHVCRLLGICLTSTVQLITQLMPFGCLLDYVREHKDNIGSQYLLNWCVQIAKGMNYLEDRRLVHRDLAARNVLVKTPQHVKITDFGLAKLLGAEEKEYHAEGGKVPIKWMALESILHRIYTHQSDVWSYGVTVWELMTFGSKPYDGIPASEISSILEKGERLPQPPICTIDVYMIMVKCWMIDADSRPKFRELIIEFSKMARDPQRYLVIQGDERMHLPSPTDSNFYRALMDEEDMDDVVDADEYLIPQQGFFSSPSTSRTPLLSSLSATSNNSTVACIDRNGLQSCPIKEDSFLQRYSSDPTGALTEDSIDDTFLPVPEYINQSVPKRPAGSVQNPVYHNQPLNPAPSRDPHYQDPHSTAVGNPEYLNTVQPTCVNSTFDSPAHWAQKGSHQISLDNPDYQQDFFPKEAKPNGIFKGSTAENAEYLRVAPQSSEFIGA
Procedure, shortened: as §1

[3] = target: intracellular phosphorylation of EGFR (Tyr1068) in PC-9 cells (Homo sapiens, UniProt P00533, DEL746-750); assay: PC-9 pEGFR AlphaLISA assay; assay type: cell-based; conditions: 4 hours incubation, read-out: Phos EGFR PC9 IC50
Sequence of intracellular phosphorylation of EGFR (Tyr1068) in PC-9 cells (P00533 with tags, fused parts or gaps DEL746-750): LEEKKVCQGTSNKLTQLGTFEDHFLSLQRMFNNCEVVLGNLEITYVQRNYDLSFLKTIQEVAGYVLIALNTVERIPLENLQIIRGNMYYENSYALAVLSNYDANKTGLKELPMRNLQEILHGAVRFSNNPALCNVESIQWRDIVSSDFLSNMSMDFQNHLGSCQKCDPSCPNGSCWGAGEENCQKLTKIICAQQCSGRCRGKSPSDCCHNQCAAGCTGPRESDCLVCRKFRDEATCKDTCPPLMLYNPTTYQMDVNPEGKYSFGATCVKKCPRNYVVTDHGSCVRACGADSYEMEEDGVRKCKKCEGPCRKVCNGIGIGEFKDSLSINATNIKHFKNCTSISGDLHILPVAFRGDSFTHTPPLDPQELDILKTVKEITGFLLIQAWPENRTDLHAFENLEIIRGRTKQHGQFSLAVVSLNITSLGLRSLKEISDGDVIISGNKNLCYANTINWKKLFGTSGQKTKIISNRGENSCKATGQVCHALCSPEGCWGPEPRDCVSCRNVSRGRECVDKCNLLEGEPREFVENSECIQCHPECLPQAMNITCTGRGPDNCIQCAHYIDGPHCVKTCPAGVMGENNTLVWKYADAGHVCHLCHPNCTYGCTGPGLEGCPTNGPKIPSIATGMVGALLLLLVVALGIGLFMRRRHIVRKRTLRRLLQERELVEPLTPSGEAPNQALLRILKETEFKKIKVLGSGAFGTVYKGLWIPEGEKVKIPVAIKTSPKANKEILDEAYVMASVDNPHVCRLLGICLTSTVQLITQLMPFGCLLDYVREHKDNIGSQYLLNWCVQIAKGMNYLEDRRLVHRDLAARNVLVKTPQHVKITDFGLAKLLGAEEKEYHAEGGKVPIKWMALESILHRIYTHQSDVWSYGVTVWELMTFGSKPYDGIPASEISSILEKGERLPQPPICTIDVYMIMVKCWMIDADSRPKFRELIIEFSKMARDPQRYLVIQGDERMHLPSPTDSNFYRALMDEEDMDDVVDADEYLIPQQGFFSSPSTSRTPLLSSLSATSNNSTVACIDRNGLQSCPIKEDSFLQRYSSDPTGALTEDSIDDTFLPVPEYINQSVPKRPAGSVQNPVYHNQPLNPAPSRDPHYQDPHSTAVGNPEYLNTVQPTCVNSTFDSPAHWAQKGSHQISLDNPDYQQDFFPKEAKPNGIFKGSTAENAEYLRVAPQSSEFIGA
Procedure, shortened: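 PC-9 cells (EGFR del746-750) in phenol-free DMEM/10% FBS, adhered overnight, then exposed to 10-point 4-fold compound dilutions for 4 h at 37 °C. Lysates assayed for pEGFR Tyr1068 by AlphaLISA SureFire Ultra; IC50 from percent pEGFR inhibition vs log concentration.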

T1 sequence (P00533 25-1210 L858R): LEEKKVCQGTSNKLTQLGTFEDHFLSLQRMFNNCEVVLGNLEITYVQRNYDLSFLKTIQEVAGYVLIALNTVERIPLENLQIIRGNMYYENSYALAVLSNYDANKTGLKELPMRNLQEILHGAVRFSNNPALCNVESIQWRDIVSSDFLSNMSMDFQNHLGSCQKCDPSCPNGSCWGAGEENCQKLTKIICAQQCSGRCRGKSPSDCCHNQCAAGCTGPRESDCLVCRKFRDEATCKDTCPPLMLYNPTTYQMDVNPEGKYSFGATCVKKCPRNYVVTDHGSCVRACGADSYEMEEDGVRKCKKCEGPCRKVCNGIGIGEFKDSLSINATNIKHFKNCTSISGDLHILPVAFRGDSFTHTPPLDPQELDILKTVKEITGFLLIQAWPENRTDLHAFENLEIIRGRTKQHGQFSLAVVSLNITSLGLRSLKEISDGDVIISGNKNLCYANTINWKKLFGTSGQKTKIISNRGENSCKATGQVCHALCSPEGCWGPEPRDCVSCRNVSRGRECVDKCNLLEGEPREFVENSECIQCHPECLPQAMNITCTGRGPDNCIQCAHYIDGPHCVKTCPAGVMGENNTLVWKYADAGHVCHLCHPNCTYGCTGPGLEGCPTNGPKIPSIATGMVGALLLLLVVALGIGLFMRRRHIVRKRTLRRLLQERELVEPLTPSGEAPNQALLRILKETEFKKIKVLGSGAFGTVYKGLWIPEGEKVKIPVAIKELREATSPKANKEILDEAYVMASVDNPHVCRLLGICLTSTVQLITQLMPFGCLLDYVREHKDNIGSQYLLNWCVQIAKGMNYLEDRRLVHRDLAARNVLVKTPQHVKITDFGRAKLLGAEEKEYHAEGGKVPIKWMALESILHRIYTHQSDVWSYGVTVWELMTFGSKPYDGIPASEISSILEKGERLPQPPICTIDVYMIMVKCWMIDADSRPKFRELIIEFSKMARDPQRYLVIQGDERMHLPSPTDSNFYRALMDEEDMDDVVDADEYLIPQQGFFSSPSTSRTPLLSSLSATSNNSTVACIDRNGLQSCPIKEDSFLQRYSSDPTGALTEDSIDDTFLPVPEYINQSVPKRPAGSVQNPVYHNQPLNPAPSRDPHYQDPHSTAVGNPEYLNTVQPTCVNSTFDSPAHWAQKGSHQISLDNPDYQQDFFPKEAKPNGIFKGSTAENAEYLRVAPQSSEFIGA

Structure (SMILES) | IC50 [1] [nM] | IC50 [2] [nM] | IC50 [3] [nM]
Cn1cc(-c2cc(OCC3COC3)c3c(Nc4ccc5ncsc5c4)ncnc3c2)cn1 [Example 28, N-(7-(1-methyl-1H-pyrazol-4-yl)-5-(oxetan-3-ylmethoxy)quinazolin-4-yl)benzo[d]thiazol-6-amine] | ≤ 10 | ≤ 10 | 10.1 to 50
Cn1cc(-c2cc(OC(CO)CO)c3c(Nc4ccc5ncsc5c4)ncnc3c2)cn1 [Example 29, 2-((4-(benzo[d]thiazol-6-ylamino)-7-(1-methyl-1H-pyrazol-4-yl)quinazolin-5-yl)oxy)propane-1,3-diol] | ≤ 10 | ≤ 10 | 10.1 to 50
Cn1cc(-c2cc(OCCO)c3c(Nc4ccc5ncsc5c4)ncnc3c2)cn1 [Example 30, 2-((4-(benzo[d]thiazol-6-ylamino)-7-(1-methyl-1H-pyrazol-4-yl)quinazolin-5-yl)oxy)ethan-1-ol] | ≤ 10 | ≤ 10 | 10.1 to 50
Cn1cc(-c2cc(OC[C@H]3CCCO3)c3c(Nc4ccc5ncsc5c4)ncnc3c2)cn1 [Example 31, (R)-N-(7-(1-methyl-1H-pyrazol-4-yl)-5-((tetrahydrofuran-2-yl)methoxy)quinazolin-4-yl)benzo[d]thiazol-6-amine] | ≤ 10 | ≤ 10 | 10.1 to 50
Cn1cc(-c2cc(OC[C@@H]3CCCO3)c3c(Nc4ccc5ncsc5c4)ncnc3c2)cn1 [Example 32, (S)-N-(7-(1-methyl-1H-pyrazol-4-yl)-5-((tetrahydrofuran-2-yl)methoxy)quinazolin-4-yl)benzo[d]thiazol-6-amine] | ≤ 10 | ≤ 10 | 10.1 to 50
CN1CCC[C@@H]1COc1cc(-c2cnn(C)c2)cc2ncnc(Nc3ccc4ncsc4c3)c12 [Example 33, (R)-N-(7-(1-methyl-1H-pyrazol-4-yl)-5-((1-methylpyrrolidin-2-yl)methoxy)quinazolin-4-yl)benzo[d]thiazol-6-amine] | ≤ 10 | ≤ 10 | 10.1 to 50
CN1CC[C@H](Oc2cc(-c3cnn(C)c3)cc3ncnc(Nc4ccc5ncsc5c4)c23)C1 [Example 34, (S)-N-(7-(1-methyl-1H-pyrazol-4-yl)-5-((1-methylpyrrolidin-3-yl)oxy)quinazolin-4-yl)benzo[d]thiazol-6-amine] | 10.1 to 50 | ≤ 10 | 10.1 to 50
CN1CC[C@@H](Oc2cc(-c3cnn(C)c3)cc3ncnc(Nc4ccc5ncsc5c4)c23)C1 [Example 35, (R)-N-(7-(1-methyl-1H-pyrazol-4-yl)-5-((1-methylpyrrolidin-3-yl)oxy)quinazolin-4-yl)benzo[d]thiazol-6-amine] | 10.1 to 50 | ≤ 10 | 10.1 to 50
Cn1cc(-c2cc(O[C@H]3CCOC3)c3c(Nc4ccc5ncsc5c4)ncnc3c2)cn1 [Example 36, (S)-N-(7-(1-methyl-1H-pyrazol-4-yl)-5-((tetrahydrofuran-3-yl)oxy)quinazolin-4-yl)benzo[d]thiazol-6-amine] | ≤ 10 | ≤ 10 | ≤ 10
Cn1cc(-c2cc(O[C@@H]3CCOC3)c3c(Nc4ccc5ncsc5c4)ncnc3c2)cn1 [Example 37, (R)-N-(7-(1-methyl-1H-pyrazol-4-yl)-5-((tetrahydrofuran-3-yl)oxy)quinazolin-4-yl)benzo[d]thiazol-6-amine] | ≤ 10 | ≤ 10 | 10.1 to 50
Cn1cc(-c2cc(OC3CC4(COC4)C3)c3c(Nc4ccc5ncsc5c4)ncnc3c2)cn1 [Example 38, N-(5-((2-oxaspiro[3.3]heptan-6-yl)oxy)-7-(1-methyl-1H-pyrazol-4-yl)quinazolin-4-yl)benzo[d]thiazol-6-amine] | ≤ 10 | ≤ 10 | ≤ 10
Cn1cc(-c2cc(OCC3(C)COC3)c3c(Nc4ccc5ncsc5c4)ncnc3c2)cn1 [Example 49, N-(7-(1-methyl-1H-pyrazol-4-yl)-5-((3-methyloxetan-3-yl)methoxy)quinazolin-4-yl)benzo[d]thiazol-6-amine] | ≤ 10 | ≤ 10 | 10.1 to 50
Cn1cc(-c2cc(OCC(F)(F)F)c3c(Nc4ccc5ncsc5c4)ncnc3c2)cn1 [Example 50, N-(7-(1-methyl-1H-pyrazol-4-yl)-5-(2,2,2-trifluoroethoxy)quinazolin-4-yl)benzo[d]thiazol-6-amine] | ≤ 10 | ≤ 10 | 10.1 to 50
CN1CCC(C)(COc2cc(-c3cnn(C)c3)cc3ncnc(Nc4ccc5ncsc5c4)c23)C1=O (stereo not drawn) [Example 54, 3-(((4-(benzo[d]thiazol-6-ylamino)-7-(1-methyl-1H-pyrazol-4-yl)quinazolin-5-yl)oxy)methyl)-1,3-dimethylpyrrolidin-2-one] | ≤ 10 | ≤ 10 | 10.1 to 50
Cn1cc(-c2cc(OC3(C)CC3)c3c(Nc4ccc5ncsc5c4)ncnc3c2)cn1 [Example 57, N-(7-(1-methyl-1H-pyrazol-4-yl)-5-(1-methylcyclopropoxy)quinazolin-4-yl)benzo[d]thiazol-6-amine] | ≤ 10 | ≤ 10 | ≤ 10
CN1CCC(COc2cc(-c3cnn(C)c3)cc3ncnc(Nc4ccc5ncsc5c4)c23)C1=O (stereo not drawn) [Example 61, 3-(((4-(benzo[d]thiazol-6-ylamino)-7-(1-methyl-1H-pyrazol-4-yl)quinazolin-5-yl)oxy)methyl)-1-methylpyrrolidin-2-one] | ≤ 10 | ≤ 10 | 10.1 to 50
C[C@@H](Oc1cc(-c2cnn(C)c2)cc2ncnc(Nc3ccc4ncsc4c3)c12)C1CC1 [Example 65, (R)-N-(5-(1-cyclopropylethoxy)-7-(1-methyl-1H-pyrazol-4-yl)quinazolin-4-yl)benzo[d]thiazol-6-amine] | ≤ 10 | ≤ 10 | ≤ 10
C[C@H](Oc1cc(-c2cnn(C)c2)cc2ncnc(Nc3ccc4ncsc4c3)c12)C1CC1 [Example 66, (S)-N-(5-(1-cyclopropylethoxy)-7-(1-methyl-1H-pyrazol-4-yl)quinazolin-4-yl)benzo[d]thiazol-6-amine] | ≤ 10 | ≤ 10 | ≤ 10
C[C@@H](Oc1cc(-c2cnn(C)c2)cc2ncnc(Nc3ccc4ncsc4c3)c12)C(F)(F)F [Example 67, (R)-N-(7-(1-methyl-1H-pyrazol-4-yl)-5-((1,1,1-trifluoropropan-2-yl)oxy)quinazolin-4-yl)benzo[d]thiazol-6-amine] | ≤ 10 | ≤ 10 | 10.1 to 50

Now from value to molecule:

IC50 [1] [nM] | IC50 [2] [nM] | IC50 [3] [nM] | Structure (SMILES)
≤ 10 | ≤ 10 | ≤ 10 | C[C@H](Oc1cc(-c2cnn(C)c2)cc2ncnc(Nc3ccc4ncsc4c3)c12)C(F)(F)F [Example 68, (S)-N-(7-(1-methyl-1H-pyrazol-4-yl)-5-((1,1,1-trifluoropropan-2-yl)oxy)quinazolin-4-yl)benzo[d]thiazol-6-amine]
≤ 10 | ≤ 10 | ≤ 10 | CN1CCC[C@H](Oc2cc(-c3cnn(C)c3)cc3ncnc(Nc4ccc5ncsc5c4F)c23)C1 [Example 69, (S)-7-fluoro-N-(7-(1-methyl-1H-pyrazol-4-yl)-5-((1-methylpiperidin-3-yl)oxy)quinazolin-4-yl)benzo[d]thiazol-6-amine]
≤ 10 | ≤ 10 | 10.1 to 50 | Cn1cc(-c2cc(OC3CC3)c3c(Nc4ccc5ncsc5c4F)ncnc3c2)cn1 [Example 76, N-(5-cyclopropoxy-7-(1-methyl-1H-pyrazol-4-yl)quinazolin-4-yl)-7-fluorobenzo[d]thiazol-6-amine]
≤ 10 | ≤ 10 | ≤ 10 | COc1nn(C)cc1-c1cc(OC2CC2)c2c(Nc3ccc4ncsc4c3)ncnc2c1 [Example 77, N-(5-cyclopropoxy-7-(3-methoxy-1-methyl-1H-pyrazol-4-yl)quinazolin-4-yl)benzo[d]thiazol-6-amine]
≤ 10 | ≤ 10 | 10.1 to 50 | C[C@H](Oc1cc(-c2cnn(C)c2)cc2ncnc(Nc3ccc4ncsc4c3F)c12)C1CCOC1 (stereo partly drawn) [Example 90, 7-fluoro-N-(7-(1-methyl-1H-pyrazol-4-yl)-5-((1S)-1-(tetrahydrofuran-3-yl)ethoxy)quinazolin-4-yl)benzo[d]thiazol-6-amine]
≤ 10 | ≤ 10 | ≤ 10 | COC[C@@H](C)Oc1cc(-c2cnn(C)c2)cc2ncnc(Nc3ccc4ncsc4c3F)c12 [Example 91, (R)-7-fluoro-N-(5-((1-methoxypropan-2-yl)oxy)-7-(1-methyl-1H-pyrazol-4-yl)quinazolin-4-yl)benzo[d]thiazol-6-amine]
≤ 10 | ≤ 10 | ≤ 10 | C[C@@H](Oc1cc(-c2cnn(C)c2)cc2ncnc(Nc3ccc4ncsc4c3F)c12)[C@@H]1CCCO1 [Example 112, 7-fluoro-N-(7-(1-methyl-1H-pyrazol-4-yl)-5-((R)-1-((S)-tetrahydrofuran-2-yl)ethoxy)quinazolin-4-yl)benzo[d]thiazol-6-amine]
≤ 10 | ≤ 10 | ≤ 10 | C[C@@H](Oc1cc(-c2cnn(C)c2)cc2ncnc(Nc3ccc4ncsc4c3F)c12)[C@H]1CCCO1 [Example 113, 7-fluoro-N-(7-(1-methyl-1H-pyrazol-4-yl)-5-((R)-1-((R)-tetrahydrofuran-2-yl)ethoxy)quinazolin-4-yl)benzo[d]thiazol-6-amine]
